Biological target: T1, human Flt-3 (Homo sapiens, UniProt P36888)
T1 construct: expresses the amino acid region amino acids 563-993 of the intra-cytoplasmic kinase domains of human Flt-3; made in house; host or cells: Sf9 insect cells (baculovirus, pFbacG01 donor vector)
T1 sequence (P36888 563-993): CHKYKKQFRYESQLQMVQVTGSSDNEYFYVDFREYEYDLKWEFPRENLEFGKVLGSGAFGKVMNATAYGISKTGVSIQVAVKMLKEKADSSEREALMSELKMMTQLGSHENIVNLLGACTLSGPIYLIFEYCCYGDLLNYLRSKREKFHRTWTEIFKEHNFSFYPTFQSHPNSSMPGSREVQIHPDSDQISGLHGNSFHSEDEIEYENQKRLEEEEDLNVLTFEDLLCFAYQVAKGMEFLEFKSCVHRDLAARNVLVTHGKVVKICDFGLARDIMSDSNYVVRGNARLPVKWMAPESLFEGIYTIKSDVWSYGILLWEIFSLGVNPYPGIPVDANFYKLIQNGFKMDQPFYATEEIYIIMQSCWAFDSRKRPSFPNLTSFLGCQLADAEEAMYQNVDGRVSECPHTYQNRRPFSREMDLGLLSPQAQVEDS
Experiment: Tyrosine protein kinase assay with purified GST-Flt-3 (33P incorporation)
Format: biochemical
Conditions: at a 1.0 micromolar concentration
Method in brief: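 GST-fused Flt-3 cytoplasmic domain, expressed in baculovirus-infected Sf9 cells and purified, phosphorylates substrate with [γ-33P]ATP. Reaction spotted onto PVDF membranes, washed with H3PO4 and ethanol, and incorporated 33P counted by scintillation.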

Row | Flt3 Inhibition (percent inhibition of Flt3 kinase activity) | Substance
1 | 22% | (9a,10b,11b,13a)-11-[[N-Acetyl-4-O-acetyl-6-O-(1-oxooctadecyl)-1-O-(phenylmethyl)-a-muramoyl]methylamino]-2,3,10,11,12,13-hexahydro-10-methoxy-9-methyl-9,13-epoxy-1H,9H-diindolo[1,2,3-gh:3′,2′,1′-lm]pyrrolo[3,4-j][1,7]benzodiazonin-1-one [149622-62-8]
2 | 94% | (9a,10b,11b,13a)-11-[[N-Acetyl-6-O-(methylsulfonyl)-a-muramoyl]methylamino]-2,3,10,11,12,13-hexahydro-10-methoxy-9-methyl-9,13-epoxy-1H,9H-diindolo[1,2,3-gh:3′,2′,1′-lm]pyrrolo[3,4-j][1,7]benzodiazonin-1-one [149622-54-8]
3 | 61% | (9a,10b,11b,13a)-11-[[N-Acetyl-6-azido-6-deoxy-1-O-(phenylmethyl)-a-muramoyl]methylamino]-2,3,10,11,12,13-hexahydro-10-methoxy-9-methyl-,9,13-epoxy-1H,9H-diindolo[1,2,3-gh:3′,2′,1′-lm]pyrrolo[3,4-j][1,7]benzodiazonin-1-one [149622-42-4]
4 | 89% | N-[(9S,10R,11R,13R)-2,3,10,11,12,13-Hexahydro-10-methoxy-9-methyl-1-oxo-9,13-epoxy-1H,9H-diindolo[1,2,3-gh:3′,2′,1′-lm]pyrrolo[3,4-j][1,7]benzodiazonin-11-yl]-2-hydroxy-N-methyl-Benzamide [178955-60-7]
5 | 49% | [9S-(9a,10b,11b,13a)]-(2,3,10,11,12,13-Hexahydro-10-methoxy-9-methyl-1-oxo-9,13-epoxy-1H,9H-diindolo[1,2,3-gh:3′,2′,1′-lm]pyrrolo[3,4-j][1,7]benzodiazonin-11-yl)methyl-carbamic acid, 2-methylpropyl ester [154590-03-1]

Further lines, the substance ahead of its results:

Row | Substance | Flt3 Inhibition (percent inhibition of Flt3 kinase activity)
6 | (9a,10b,11b,13a)-11-[[N-Acetyl-4-O-acetyl-6-O-(1-oxooctadecyl)-a-muramoyl]methylamino]-2,3,10,11,12,13-hexahydro-10-methoxy-9-methyl-9,13-epoxy-1H,9H-diindolo[1,2,3-gh:3′,2′,1′-lm]pyrrolo[3,4-j][1,7]benzodiazonin-1-one [149622-64-0] | 27%
7 | (9a,10b,11b,13a)-11-[[N-Acetyl-6-O-(methylsulfonyl)-1-O-(phenylmethyl)-a-muramoyl]methylamino]-2,3,10,11,12,13-hexahydro-10-methoxy-9-methyl-, 9,13-epoxy-1H,9H-diindolo[1,2,3-gh:3′,2′,1′-lm]pyrrolo[3,4-j][1,7]benzodiazonin-1-one [149622-41-3] | 51%
8 | (9a,10b,11b,13a)-11-[[N-Acetyl-6-amino-6-deoxy-1-O-(phenylmethyl)-a-muramoyl]methylamino]-2,3,10,11,12,13-hexahydro-10-methoxy-9-methyl-9,13-epoxy-1H,9H-diindolo[1,2,3-gh:3′,2′,1′-lm]pyrrolo[3,4-j][1,7]benzodiazonin-1-one, monomethanesulfonate [150622-14-3] | 99%
9 | (9a,10b,11b,13a)-N-(2,3,10,11,12,13-Hexahydro-10-methoxy-9-methyl-1-oxo-9,13-epoxy-1H,9H-diindolo[1,2,3-gh:3′,2′,1′-lm]pyrrolo[3,4-j][1,7]benzodiazonin-11-yl)-N-methyl-4-nitro-benzamide [120685-46-3] | 81%
10 | [9S-(9a,10b,11b,13a)]-(2,3,10,11,12,13-Hexahydro-10-methoxy-9-methyl-1,3-dioxo-9,13-epoxy-1H,9H-diindolo[1,2,3-gh:3′,2′,1′-lm]pyrrolo[3,4-j][1,7]benzodiazonin-11-yl)methyl-carbamic acid, 1,1-dimethylethyl ester [154589-93-2] | 67%

From patent publication US8222244B2, “Staurosporine derivatives as inhibitors of FLT3 receptor tyrosine kinase activity” (Novartis AG, priority 2001, dated 2012)
